Experimental data reported in PMC12124432, “Antimicrobial Peptide‐Peptoid Macrocycles from the Polymyxin B2 Chemical Space” (Angewandte Chemie (International Ed. in English), 2025).
Values after ≈ are worked out from the molar mass of the structure shown. Bridge positions count the residues as written; N and C are the ends. Square brackets hold non-standard residues; d marks the D form. Peptide text beside a SMILES is read from it. * marks the point of attachment. Propanoyl(3-cHex) = O=C(CCC1CCCCC1)*; Gly(NCH2CH2Ph) = O=C(O)CNCCc1ccccc1; Heptanoyl(6-Me) = CC(C)CCCCC(=O)*; N(iPr)Gly = CC(C)NCC(=O)O; Nphe = O=C(O)CNCc1ccccc1; Dab = NCC[C@H](N)C(=O)O; Nlys = NCCCCNCC(=O)O

How the values were obtained:
E. coli W3110 = format: cell-based, Escherichia coli; conditions: W3110, pH 8.5
Description: (§1) Minimal Inhibitory Concentration (MIC)
(§2) Antimicrobial activity was assayed for all the peptide-peptoids against P. aeruginosa PAO1, K. pneumoniae NCTC418, E. coli W3110, A. baumannii ATCC 19606, methicillin-resistant S. aureus COL (MRSA) and for selected peptides on P. aeruginosa PA14, as well as the clinical isolates ZEM-1A and ZEM9A, K. pneumoniae OXA-48, Enterobacter cloacae, Stenotrophomonas maltophilia and Staphylococus epidermidis. To determine the Minimal Inhibitory Concentration (MIC), Broth Microdilution method was used. A colony of bacteria was picked and grown in LB medium overnight at 37 °C. The next day, the culture was then regrown in LB medium to log phase (OD600 = 0.6 to 0.8), which lasted approximately 4 hours, and diluted to an OD600 of 0.022 in the desired medium (full MH or 12.5% MH).
(§3) The compounds were prepared as stock solutions of 2 mg/mL in sterilized MilliQ deionized water and then diluted in the desired media (full MH or 12.5% MH) to reach the first concentration tested (32 μg/mL). The compounds were added to the first well of a 96-well sterile, round bottom microtiter plates in polystyrene (TPP®, untreated) and diluted serially by ½ in the desired media (full MH or 12.5% MH), to a final volume of 150 µL/well. To each well was finally added 4 µL of the diluted bacterial suspension (see above), corresponding to approximately 5×10^5 CFU. For each test, two columns of the plate were kept for sterility control (medium only), growth control (medium with bacterial inoculum, no compound). The positive control, Polymyxin B (starting with a concentration of 16 µg/mL) in MH medium with bacterial inoculums, was introduced in the two first lines of the plate. The plates were incubated at 37 °C for ca. 18 hours under static conditions. 15 µL of 3-(4,5-dimethylthiazol-2-yl)-2,5-diphenyltetrazolium bromide (MTT)[7] (1 mg/mL in sterilized MilliQ deionized water) were added to each well and the plates were incubated for 20-30 minutes at room temperature. The […]
(§4) minimal inhibitory concentration (MIC) was defined as the lowest concentration of the compound that inhibits the visible growth of the tested bacteria (yellow) with the unaided eye.
(§5) Minimal Hemolytic Concentration (MHC) […]
(§6) 11. Minimal inhibitory in presence of salt
The same procedure as for the antibacterial activity measurements by minimal inhibitory concentration assay (MIC) was applied. The media, 12.5% Mueller-Hinton broth was this time supplemented with different salt concentrations (0, 100, 200 300 mM NaCl). […]
(§7) All data, in μg/mL, measured against P. aeruginosa PAO1, with or without addition of salt (NaCl). The values were measured in dilute medium (12.5% MH) and at slightly basic pH (pH = 8.5), after incubation for 16-20 h at 37 °C. Values represent two different duplicate MIC determinations.

P. aeruginosa PAO1 = format: cell-based, Pseudomonas aeruginosa; conditions: PAO1, pH 8.5
Description: as §1, §2, §3, §4, §5, §6
The same procedure as for the antibacterial activity measurements by minimal inhibitory concentration assay (MIC) was applied. The media, 12.5% Mueller-Hinton broth was this time supplemented with different salt concentrations (0, 100, 200 300 mM NaCl). The MIC activities were then determined against Pseudomonas aeruginosa PAO1 and Escherichia coli […]
Table S6. Minimal inhibitory concentration (MIC) on P. aeruginosa PAO1 as function of salt […]
as §7

[1] = system: E. coli W3110, P. aeruginosa PAO1, S. aureus COL (MRSA), A. baumannii ATCC19606, K. pneumoniae NCTC418; test: MIC of macrocycles versus their linearized analogs (Table S4 panel); format: cell-based; conditions: Table S4, 12.5% MH pH 7.4
Description: as §1
as §2, with “MH). […]” for “MH).”
To determine the minimal hemolytic concentration (MHC), stock solutions of 8 mg/mL of the peptide in sterilized MilliQ water deionized were prepared and 50 μL were diluted serially by ½ in 50 μL PBS (pH 7.4) in 96-well plate (Costar or Nunc, polystyrene, untreated). […] Minimal hemolytic concentration (MHC) end points were determined by visual determination of the wells after the incubation period. […]

human red blood cells = test: Minimal hemolytic concentration (MHC); format: cell-based; conditions: pH 7.4, 25 °C, 4 h
Description: as §4
Minimal Hemolytic Concentration (MHC)
To determine the minimal hemolytic concentration (MHC), stock solutions of 8 mg/mL of the peptide in sterilized MilliQ water deionized were prepared and 50 μL were diluted serially by ½ in 50 μL PBS (pH 7.4) in 96-well plate (Costar or Nunc, polystyrene, untreated). Human red blood cells (hRBC) were obtained by centrifugation of 1.5 mL of whole blood, from the blood bank of Bern, at 3000 rpm for 15 minutes at 4 °C. Plasma was discarded and the pellet was re-suspended in a 15 mL Falcon tube in 5 mL of PBS. The washing was repeated three times, and the remaining pellet was re-suspended in 10 mL of PBS at a final hRBC concentration of 5%. The hRBC suspension (50 μL) was added to each well and the plate was incubated at room temperature for 4 hours. Minimal hemolytic concentration (MHC) end points were determined by visual determination of the wells after the incubation period.
Controls on each plate included a blank medium control (50 μL PBS + 50 μL of hRBC suspension) and a hemolytic activity control t-octylphenoxypolyethoxyethanol (Triton-X100) (1 % in MilliQ-deionized water) 50 μL + 50 μL hRBC suspension).
Table S3. […]

[2] = Dansyl-polymyxin (DsPMB) displacement assay; format: binding, Pseudomonas aeruginosa; conditions: 37 °C, 2.5 µM DsPMB, LPS 3 μg/mL, emission 485 nm; mean ± SD, n = 3
Description: 14. Dansyl-Polymyxin (DsPMB) Displacement Assay
Saturation determination. Dansyl-polymyxin (DsPMB) in water (1.5 mg/mL) and lyophilized lipopolysaccharides from P. aeruginosa were obtained from Merck. LPS were prepared as a 1 mg/mL stock solution in mQ water and stored at 4 °C. The fluorescence saturation of DsPMB with LPS was first determined, by titration (0.25 μM increments, up to 5 μM) of the DsPMB into a 3 μg/mL of LPS (10 mM Tris, 10 mM NaCl buffer, pH 7.4), at 37 °C. The fluorescence was recorded with a Jasco spectrofluorometer FP-8300, with the excitation at λex = 340 nm (5 nm slit width) and recorded from 420 to 650 nm. The fluorescence was recorded two minutes after each addition. Saturation was graphically determined, at a concentration of D sPMB ≈ 2.5 μM (λem = 485 nm). Each measurement was determined in triplicates.
Displacement assay. The displacement effect of the various peptides was determined by measuring the reduction of fluorescence intensity, at 37 °C. Initially, DsPMB (2.5 μM) was mixed with LPS (3 μg/mL) and let it react for 15 minutes before recording the fluorescence […]
intensity (at λem = 485 nm and λex = 340 nm). Then, the peptide was titrated (1 μM increments, up to 10 μM) into the DsPMB/LPS mixture, and the fluorescence was recorded two minutes after the compound addition. The decrease in fluorescence was interpreted as the displacement of DsPMB from the LPS due to competitive binding by the peptide.[12,13] Specific Fluorescence Enhancement
Figure S8. Fluorescence emission of dansyl-polymyxin (DsPMB) in presence of lipopolysaccharide (LPS) extracted from P. aeruginosa (3 µg/mL) in TRIS/NaCl buffer (10 mM, pH 7.4). The fluorophore was excited at 340 nm (5 nm slit width) and recorded from 420 to 650 nm. The data represent mean value from three measurement. Specific fluorescence represents the emission of DsPMB with the non-specific fluorescence (no LPS) deduced.

Serum stability assay = format: in vitro ADME; conditions: human serum 12.5% in 0.1 M Tris buffer pH 7.4, 37 °C, 200 µM peptide, time points 0/1/6/10/24 h, triplicates, LC(-MS), 4-hydroxybenzoic acid internal standard
Description: Human serum was diluted in 0.1 M filtered TRIS buffer pH 7.4 (25%, 1:3, v/v). Selected hybrids were diluted in 0.1 M filtered TRIS buffer pH 7.4 to a concentration of 400 μM and 0.1 mg/mL of 4-hydroxybenzoic acid was added as internal standard. Aliquots of peptide solution (50 μL) were added to aliquots of serum (50 uL) in sterile Eppendorf tubes, to reach a peptide concentration of 200 μM during the assay. Samples were incubated at 37 °C under gentle stirring (350 rpm). Different samples (triplicates) were quenched at different time points (0 / 1 / 6 / 10 / 24 h) by precipitating serum proteins through the addition of 100 μL of a solution ZnSO4·7 H2O (0.05 mM) in water/ACN (1:1) and cooling in ice bath for 10 minutes.
Protein precipitates were pelleted under centrifugation (5 min at 14’000 rpm) and the supernatants were analysed by LC-MS. Experiment controls included a precipitation control for each peptide to test their resistance to the protein precipitation conditions and serum blanks to check reproducibility over different serum batches. Peaks corresponding to the internal standard and the undegraded peptides were integrated, with the ratio peptide/standard at t = 0 h as 100 % undegraded peptide.
Cell Culture Conditions. […]

Row | Compound | MIC on E. coli, 0 mM NaCl (E. coli W3110) [µg/mL] | MIC on E. coli, 100 mM NaCl (E. coli W3110) [µg/mL] | MIC on E. coli, 200 mM NaCl (E. coli W3110) [µg/mL] | MIC on E. coli, 300 mM NaCl (E. coli W3110) [µg/mL] | MIC on P. aeruginosa, 0 mM NaCl (P. aeruginosa PAO1) [µg/mL] | MIC on P. aeruginosa, 100 mM NaCl (P. aeruginosa PAO1) [µg/mL] | MIC on P. aeruginosa, 200 mM NaCl (P. aeruginosa PAO1) [µg/mL] | MIC on P. aeruginosa, 300 mM NaCl (P. aeruginosa PAO1) [µg/mL] | further results
1 | CC(C)N(CC(=O)N[C@@H](CC(N)=O)C(=O)N[C@H]1CCNC(=O)[C@H](CCCCN)NC(=O)[C@H](CC(N)=O)NC(=O)CN(CCCCN)C(=O)[C@H](CCCCN)NC(=O)[C@H](CO)NC1=O)C(=O)CN(Cc1ccccc1)C(=O)CCC1CCCCC1 [EB36] ({Propanoyl(3-cHex)}-[Nphe][N(iPr)Gly]N[Dab]SK[Nlys]NK; lactam 4-C) | 16 to 32 | > 64 | > 64 | > 64 | 32 (≈ 27 µM) | > 64 | > 64 | > 64 | 
2 | CC(C)N1CC(=O)N[C@@H](CCCCN)C(=O)N[C@@H](CO)C(=O)N[C@@H](CCCCN)C(=O)NCC[C@H](NC(=O)[C@H](CCCCN)NC(=O)[C@@H]2CCCN2C(=O)CN(CCc2ccccc2)C(=O)CCC2CCCCC2)C(=O)N[C@@H](CC(N)=O)C(=O)NCC1=O [EB37] ({Propanoyl(3-cHex)}-[Gly(NCH2CH2Ph)]PK[Dab]NG[N(iPr)Gly]KSK; lactam 4-C) | 32 (≈ 25.8 µM) | > 64 | > 64 | > 64 | 32 (≈ 25.8 µM) | > 64 | > 64 | > 64 | 
3 | CC(C)CCCCC(=O)N[C@@H](CCN)C(=O)N[C@H](C(=O)N[C@@H](CCN)C(=O)N[C@H]1CCNC(=O)[C@H]([C@@H](C)O)NC(=O)[C@H](CCN)NC(=O)[C@H](CCN)NC(=O)[C@H](CC(C)C)NC(=O)[C@@H](Cc2ccccc2)NC(=O)[C@H](CCN)NC1=O)[C@@H](C)O [PMB2, polymyxin B2] ({Heptanoyl(6-Me)}-[Dab]T[Dab][Dab][Dab][dF]L[Dab][Dab]T; lactam 4-C) | 0.25 (≈ 0.21 µM) | 0.25 (≈ 0.21 µM) | 0.25 (≈ 0.21 µM) | 0.25 (≈ 0.21 µM) | 0.5 (≈ 0.42 µM) | 0.25 (≈ 0.21 µM) | 0.25 (≈ 0.21 µM) | 0.25 (≈ 0.21 µM) | 
4 | FA4-Val-C2-A1-Ala-Lys-Gly-Lys-C3-Lys [EB13lin, linearized analog of EB13] |  |  |  |  |  |  |  |  | Loss of activity of linearized analog relative to macrocyclic parent [1]: between two‐fold and eight‐fold less active
5 | FA5-A3-Lys-Asn-Ala-Lys-H2-Lys-C3-Lys [EB12lin, linearized analog of EB12] |  |  |  |  |  |  |  |  | Loss of activity of linearized analog relative to macrocyclic parent [1]: between two‐fold and eight‐fold less active
6 | FA7-H4-C3-A6-Dab(*)-C2-Lys-Ser-Lys-C1-Lys-* (lariat or depsi) [EB33, hemolytic peptide-peptoid macrocycle, PDGA-generated PMB2 analog] |  |  |  |  |  |  |  |  | Hemolysis of red blood cells relative to PMB2 (human red blood cells): slightly more hemolytic than PMB2; Binding to lipopolysaccharide (dansyl-PMB fluorescence displacement) [2]: an even stronger signal
7 | FA10-A3-Lys-C2-Dab(*)-Asn-C2-Lys-Val-Lys-* (lariat or depsi) [EB18, peptide-peptoid macrocycle, PDGA-generated PMB2 analog] |  |  |  |  |  |  |  |  | Stability against proteolysis in human serum (undegraded peptide) (Serum stability assay): did not show any significant degradation in human serum
